A short description of series [1]: Cell viability assay (MTS/PMS), HaCaT cell line. The settings on record: human, text b151, read-out: IC50 (cytotoxicity, HaCaT). The format is cell-based. The method, then: An immortalized human keratinocytes (HaCaT) cell line (Gift from David Gram Naym at Bispebjerg Hospital) was cultured to ˜90% confluence after 21-25 h of growth under standard conditions (5% CO2/95% 02 at 37° C.). Cells were cultured in Dulbecco's Modified Eagle's Medium supplemented with 10% (v/v) fetal bovine serum (FBS). All culture media were supplemented with penicillin (100 IU/mL) and streptomycin (100 μg/mL). All cell media and supplements were obtained from Sigma-Aldrich (St. Louis, Mo., United States). The 96-well plates were obtained from Corning Costar (Sigma-Aldrich, Brondby, Denmark).
Cell viability assessment was performed on cell monolayers grown to ˜90% confluence in 96-well plates using the MTS/PMS assay as previously described. Briefly, the adhered cells were washed with 37° C. PBS solution (ThermoFisher Scientific, Roskilde) and exposed for 1 h at 37° C. to 100 μL of peptoid dissolved in the medium also used for culturing of the cell line (at concentrations in the range 0-1000 μg/mL). The cells were then washed twice with 37° C. PBS. […] A plate reader (SpectraMax i3X; Molecular devices, San Jose, Calif.) was used to measure the absorbance at 492 nm. The relative viability was calculated by using 0.2% (w/v) sodium dodecyl sulfate (SDS) as the positive control, while cells exposed to medium without test compound were used as the negative control. […]

Series [2] concerns methicillin-resistant S. aureus USA 300. Type of series: cell-based, Staphylococcus aureus. The method, then: (§1) Bacterial growth inhibition was determined by using broth microdilution according to the Clinical Laboratory Standards Institute. The antibacterial activity of peptoids was tested against S. aureus ATCC 25923, ATCC29213, and methicillin resistant S. aureus USA 300, methicillin resistant S. epidermidis ATCC 51625, a biofilm producing methicillin resistant S. epidermidis […], P. aeruginosa Pa01 (H103), and E. coli ATCC 25922. Bacteria, grown on agar plates for 18 hours at 37° C., were diluted to ˜1×10^8 CFU/mL in Mueller-Hinton Broth II (MHB II). Twofold serial dilutions of peptoids in MHB II were inoculated with the bacteria to achieve a final concentration of 5×10^5 CFU/mL in polypropylene 96 U-well microtiter plates (Corning™ 3897; ThermoFisher Scientific, Roskilde), followed by incubation at 37° C. in ambient air for 18 hours. The MIC values were determined as the lowest concentration showing no visible bacterial growth. Experiments were performed twice (in technical triplicates) on different days.

In the next series the test system is S. aureus ATCC 25923. Type of series: cell-based, Staphylococcus aureus. The settings on record: S. aureus ATCC 25923. The protocol:
as §1

Series [3] relates to methicillin-restant S. epidermidis ATCC 51625. Type of series: cell-based, Staphylococcus epidermidis. The settings on record: S. epidermidis ATCC 51625. The method, then: as §1
Series [4] relates to methicillin-restant S. epidermidis ET-024. Type of series: cell-based, Staphylococcus epidermidis. The settings on record: S. epidermidis ET-024. The protocol: as §1
For another series, the system named is E. coli ATCC 25922. The format is cell-based, Escherichia coli. The protocol: as §1
The conditions of series [5]: intraperitoneal; Czyzewski et al. 2016; cited from earlier work.
The next series deals with P. aeruginosa PA01. Type of series: cell-based, Pseudomonas aeruginosa. The settings on record: P. aeruginosa PA01 H103. The method, then: as §1
The conditions of series [6]: in words; cited from earlier work.
A short description of series [7]: Small angle X-ray scattering, critical aggregation concentration from fit. The format is physicochemical. The settings on record: Table 2; 10-mers, SAXS at ESRF, model fit. The method, then: SAXS experiments of the 10-mer peptoids were performed on the automated BM29 bioSAXS beamline at the European Synchrotron Radiation Facility (ESRF) in Grenoble, France. The data was obtained using an energy of 12.5 keV and a detector distance of 2.87 m, covering a q range (q=4π sin(θ/2)/λ), where θ is the scattering angle and λ is the X-ray wavelength) of about 0.0047 Å-1 to 0.5 Å-1. The data set was calibrated to an absolute intensity scale using water as a primary standard. Samples (40 μL) were run through a capillary using the flow mode of the automated sample changer. SAXS data was collected in ten successive frames of 0.5 s each to monitor radiation damage, and the data reduction was done using the standard tool at BM29.
The SAXS experiments on the fully iodinated 6-, 8-, and 12-mers to determine the CAC of the compounds were performed using a Bruker NANOSTAR equipped with a microfocus X-ray source (IμS Cu, Incoatec, Germany) and a VANTEC-2000 detector. Raw scattering data was calibrated to absolute intensity scale using water as a primary standard and radially averaged in order to obtain the 1D scattered intensity profile as a function of the scattering vector, with a wavelength of 1.54 Å.
where fagg is the fraction of peptoid chains aggregated in bundles, allowing for calculation of a CAC from ϕCAC=ϕ−(fagg*ϕ).

Series [8] deals with S. aureus and S. epidermidis. The format is cell-based, Staphylococcus aureus, Staphylococcus epidermidis. The settings on record: span over the Gram-positive strains. The protocol: as §1

The structures appear in SMILES notation. Converted amounts (≈) assume the structure as drawn. Read-outs that look alike come from different tables or passages of the source. Square brackets hold non-standard residues; d marks the D form. Peptide text beside a SMILES is read from it. N(4-Br-benzyl)Gly = O=C(O)CNCc1ccc(Br)cc1; Nspe = C[C@H](NCC(=O)O)c1ccccc1; Nphe = O=C(O)CNCc1ccccc1; Nlys = NCCCCNCC(=O)O

As a reminder, the IC50 is the concentration at which inhibition is half-maximal. As for `C[C@@H](c1ccccc1)N(CC(N)=O)C(=O)CN(C(=O)CN(CCCCN)C(=O)CN(C(=O)CN(C(=O)CN(CCCCN)C(=O)CN(C(=O)CN(C(=O)CN(CCCCN)C(=O)CN(C(=O)CN(C(=O)CNCCCCN)[C@@H](C)c1ccccc1)[C@@H](C)c1ccccc1)[C@@H](C)c1ccccc1)[C@@H](C)c1ccccc1)[C@@H](C)c1ccccc1)[C@@H](C)c1ccccc1)[C@@H](C)c1ccccc1` [Peptoid 1, H-(NLys-Nspe-Nspe)4-NH2] (H-[Nlys][Nspe][Nspe][Nlys][Nspe][Nspe][Nlys][Nspe][Nspe][Nlys][Nspe][Nspe]-NH2), the IC50 at 1 h in series [1] was found to be 35 µg/mL (≈ 19.2 µM). Also, the “MIC MRSA^b” value in series [2] (Table 4) and in series [2] (Table 5) was 8 µg/mL (≈ 4.4 µM) throughout. The “MIC SA^a” value against S. aureus ATCC 25923 (Table 4) and with S. aureus ATCC 25923 (Table 5) was 8 µg/mL (≈ 4.4 µM) in each case. In addition, the “MIC MRSE^d” value in [3] (Table 4) and in [3] (Table 5) was 8 µg/mL (≈ 4.4 µM) throughout. For the same molecule, the “MIC MRSE^c” value in [4] (Table 4) and in series [4] (Table 5) was 4 µg/mL (≈ 2.2 µM) throughout. Further, the “MIC EC^e” value with E. coli ATCC 25922 (Table 4) and against E. coli ATCC 25922 (Table 5) was 8 µg/mL (≈ 4.4 µM) throughout. Besides, in series [5], the “tolerability intraperitoneally in vivo” value is listed as “reasonably well tolerated”. In addition, the “MIC PA^f” value with P. aeruginosa PA01 (Table 4) and with P. aeruginosa PA01 (Table 5) was 16 µg/mL (≈ 8.79 µM) throughout. Besides, the cytotoxicity in vitro result in series [6] is reported as “relatively high cytotoxicity”.
For the molecule `NCCCCNCC(=O)N(CC(=O)N(CCCCN)CC(=O)N(CC(=O)N(CCCCN)CC(=O)N(CC(=O)N(CCCCN)CC(=O)N(CC(=O)N(CCCCN)CC(=O)N(CC(N)=O)Cc1ccc(Br)cc1)Cc1ccccc1)Cc1ccc(Br)cc1)Cc1ccccc1)Cc1ccc(Br)cc1` [Compound 26] (H-[Nlys][N(4-Br-benzyl)Gly][Nlys][Nphe][Nlys][N(4-Br-benzyl)Gly][Nlys][Nphe][Nlys][N(4-Br-benzyl)Gly]-NH2), in [7], the CAC is over 5 mg/mL. Further, in series [8], the MICs was in the range of 1 to 8 µg/mL.

The values above are taken from patent US20220213144A1, “HALOGENATED ANTIMICROBIAL PEPTOIDS” (priority 2019, published 2022).
